Source: PMC11110157, “Biosynthesis of the bacterial antibiotic 3,7-dihydroxytropolone through enzymatic salvaging of catabolic shunt products” (Chemical Science, 2024)

Key:
TrlD [1] = biological target: T1, TrlD (Streptomyces cyaneofuscatus, UniProt A0A2S1JZG9); assay: co-purification with bound flavin; type: binding; conditions: FAD preferred over FMN as flavin substrate
T1 construct: heterologously produced and purified; fraction co-purified with FAD
T1 sequence (A0A2S1JZG9 1-185): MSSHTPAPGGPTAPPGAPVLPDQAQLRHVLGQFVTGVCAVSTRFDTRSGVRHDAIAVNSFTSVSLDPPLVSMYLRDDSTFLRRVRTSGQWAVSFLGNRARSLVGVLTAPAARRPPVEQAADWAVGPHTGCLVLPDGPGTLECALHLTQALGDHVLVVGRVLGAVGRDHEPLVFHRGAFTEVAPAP

TrlE [2] = biological target: T2, TrlE (Streptomyces cyaneofuscatus, UniProt A0A2S1JZI9); assay: X-ray crystallography ([…] A); type: binding; conditions: FAD non-covalently bound, IN conformation
T2 construct: heterologously produced and purified; crystal structure model residues 1-400
T2 sequence (A0A2S1JZI9 1-400): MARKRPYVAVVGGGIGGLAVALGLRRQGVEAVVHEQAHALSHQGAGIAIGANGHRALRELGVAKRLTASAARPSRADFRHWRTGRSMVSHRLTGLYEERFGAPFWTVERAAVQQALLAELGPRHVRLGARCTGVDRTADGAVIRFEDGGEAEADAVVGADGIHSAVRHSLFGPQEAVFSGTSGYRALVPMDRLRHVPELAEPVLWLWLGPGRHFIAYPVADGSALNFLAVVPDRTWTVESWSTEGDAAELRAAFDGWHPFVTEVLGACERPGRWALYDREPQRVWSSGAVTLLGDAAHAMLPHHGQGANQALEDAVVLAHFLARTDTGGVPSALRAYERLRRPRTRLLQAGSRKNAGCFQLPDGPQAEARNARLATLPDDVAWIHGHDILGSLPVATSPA

TrlD [3] = biological target: T1, TrlD; assay: flavin reductase assay, cofactor specificity; type: biochemical; conditions: preferred over NADPH
TrlE [4] = biological target: T2, TrlE; assay: differential scanning fluorimetry; type: binding; conditions: substrate analogue; thermal shift
TrlE [5] = biological target: T3, TrlE (Streptomyces cyaneofuscatus, UniProt A0A2S1JZI9, H213E); assay: substrate consumption and product formation assay; type: biochemical; conditions: strongly reduced activity, minor product formation
T3 construct: heterologously produced and purified; crystal structure model residues 1-400
T3 sequence (A0A2S1JZI9 entry or part of it H213E): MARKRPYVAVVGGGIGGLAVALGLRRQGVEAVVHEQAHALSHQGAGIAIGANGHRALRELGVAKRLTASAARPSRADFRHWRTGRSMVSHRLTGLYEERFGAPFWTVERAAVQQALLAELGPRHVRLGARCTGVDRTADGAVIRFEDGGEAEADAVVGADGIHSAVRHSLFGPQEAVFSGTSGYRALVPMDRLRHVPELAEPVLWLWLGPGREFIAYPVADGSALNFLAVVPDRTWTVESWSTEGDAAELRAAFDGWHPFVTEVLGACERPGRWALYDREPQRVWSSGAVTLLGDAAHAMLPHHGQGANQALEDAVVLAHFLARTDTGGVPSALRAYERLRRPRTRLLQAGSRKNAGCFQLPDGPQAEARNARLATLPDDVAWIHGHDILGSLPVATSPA

TrlE [6] = biological target: T4, TrlE (Streptomyces cyaneofuscatus, UniProt A0A2S1JZI9, H213Q); assay: substrate consumption and product formation assay; type: biochemical; conditions: strongly reduced activity, minor product formation
T4 construct: heterologously produced and purified; crystal structure model residues 1-400
T4 sequence (A0A2S1JZI9 entry or part of it H213Q): as the sequence (A0A2S1JZI9 entry or part of it H213E) above, with E213Q counted along it

TrlE [7] = biological target: T5, TrlE (Streptomyces cyaneofuscatus, UniProt A0A2S1JZI9, Y217F); assay: substrate consumption and product formation assay; type: biochemical; conditions: strongly reduced activity
T5 construct: heterologously produced and purified; crystal structure model residues 1-400
T5 sequence (A0A2S1JZI9 entry or part of it Y217F): as the sequence (A0A2S1JZI9 entry or part of it H213E) above, with E213H, Y217F counted along it

## Cc1cc2nc3c(=O)[nH]c(=O)nc-3n(C[C@H](O)[C@H](O)[C@H](O)COP(=O)(O)OP(=O)(O)OC[C@H]3O[C@@H](n4cnc5c(N)ncnc54)[C@H](O)[C@@H]3O)c2cc1C [FAD]
TrlD [1]
  co-purification with bound flavin: a fraction of TrlD was co-purified with bound FAD
TrlE [2]
  X-ray crystallography (2.5 A): The non-covalently bound FAD observed in this structure is present in the “IN” conformation

## NC(=O)C1=CN([C@@H]2O[C@H](COP(=O)(O)OP(=O)(O)OC[C@H]3O[C@@H](n4cnc5c(N)ncnc54)[C@H](O)[C@@H]3O)[C@@H](O)[C@H]2O)C=CC1 [NADH]
TrlD [3]
  flavin reductase assay, cofactor specificity: TrlD preferred FAD and NADH over FMN and NADPH, respectively

## O=C(O)c1cccccc1=O [tropone-2-carboxylate]
TrlE [4]
  differential scanning fluorimetry: binding of these compounds to TrlE was confirmed by differential scanning fluorimetry (DSF)

## O=C(O)C1=C(O)CC=CC=C1 [compound 7, dihydrotropone-2-carboxylate]
TrlE [5]
  substrate consumption and product formation assay: For both H213E and H213Q variants, minor product formation was still observed
TrlE [6]
  substrate consumption and product formation assay: For both H213E and H213Q variants, minor product formation was still observed
TrlE [7]
  substrate consumption and product formation assay: the other variants showed strongly reduced catalytic activity, with slowed substrate consumption and product formation

## O=C(O)c1ccccc1O [salicylate]
TrlE [4]
  differential scanning fluorimetry: binding of these compounds to TrlE was confirmed by differential scanning fluorimetry (DSF)
